Measurements from patent US6271205A, “Cancer treatment by expression of differentiation factor receptor” (University of Massachusetts Medical Center, priority 1997, dated 2001).

System: C6 rat glioma cells
Assay: Induction of cell cycle arrest in C6 cells with aphidicolin
Format: cell-based
Settings: 0.3 μM aphidicolin, 5 days
Procedure: SH-SY5Y cells were grown at 37° C. in RPMI 1640 medium (GIBCO BRL, Gaithersburg, Md.) supplemented with 10% fetal bovine serum (Sigma Chemicals, St. Louis, Mo.) and 100 μg/ml of gentamicin. For differentiation studies, cells were plated (1.5×10^5 to 5×10^5 cells/dish) in 35-mm Primaria dishes (Falcon, Franklin Lakes, N.J.). One hundred ng/ml NGF (2.5 S; Bioproducts for Science, Indianapolis, Ind.) and/or 0.3 μM aphidicolin (Sigma Chemicals, St. Louis, Mo.) were added every 2-3 days. Cell proliferation was assessed by BrdU labeling, as described by LoPresti et al. (Cell Growth Diff. (1992) 3:627-635).
0.3 μM aphidicolin (Sigma, St. Louis Mo.) was added to logarithmically growing C6 rat glioma cells (ATCC, CCL 107, Rockville, Md.) in MEM medium supplemented with 10% fetal bovine serum (Sigma, St. Louis, Mo.). After 5 days incubation, growth arrested cells were removed with trypsin and 2.0×10^4 cells were seeded on polyornithine coated coverslips (polyornithine hydrobromide, Sigma) containing aphidicolin supplemented media for another five days in 24-well plates. Coverslips were then fixed in either methanol (10 minutes at -20° C.) or 4% paraformaldehyde (20 minutes at room temperature) for immunohistochemical analysis.
Less than 5% of cells were stained to any extent with antibodies to GFAP, medium and heavy chain neurofilament (SMI-312) or MAP-2. […]

C[C@@]1(CO)[C@H](O)CC[C@@]2(C)[C@H]1CC[C@H]1C[C@@H]3C[C@@]12CC[C@]3(O)CO [aphidicolin]
cells extending branched complex neurite-like processes: 48%
BrDU labeling (proliferation) (MEM + 10% FBS, untreated cells 52%): 7.2%
